What all share (type): in vivo
One assay relates to Veronica persica (VERPE). Kind of assay: Post-emergence action, greenhouse pot test, visual scoring: VERPE. Here is the method:
(§1) Seeds or rhizome pieces of mono- and dicotyledonous harmful and useful plants were placed in peat pots (diameter 4 cm) filled with sandy loam and then covered with soil. The pots were kept in a greenhouse under optimum conditions. In addition, harmful plants encountered in paddy rice cultivation were cultivated in pots with a water level 2 cm above the soil surface.
(§2) About three weeks after the start of the cultivation, the test plants were treated at the 2- to 3-leaf stage. The herbicides, formulated as powder or liquid concentrates, were, either alone or in the combinations according to the invention, sprayed in various dosages on to the green parts of the plants using an application rate of 600 l of water/ha (converted). For further cultivation of the plants, the pots were then again kept under optimum conditions in a greenhouse.
(§3) The visual scoring of the herbicidal effects was carried out in intervals up to 21 days after the treatment. Scoring was carried out in percent in comparison to the untreated control plants. 0%=no herbicidal activity, 100%=complete herbicidal activity=complete kill.
(§4) The percentages from the treatments with the herbicides alone (=individual application) and with the combinations according to the invention (=mixtures) were employed to calculate interactions using the method of Colby. When the observed efficacies of the mixtures exceed the formal sum of the values of the tests with individual applications, they also exceed the expected value according to Colby, which is calculated using the formula below (cf. S. R. Colby; in Weeds 15 (1967) pp. 20 to 22):
(§5) Here: • A, B=activity of components A and B in percent at a dosage of a and b g of ai/ha (=gramm of active substance per hectare), respectively. • E=expected value in % at a dosage of a+b g of ai/ha.
(§6) The combinations according to the invention of herbicides from group (A) with herbicides from group (B) were tested on a broad spectrum of important harmful plants (weed grasses, broad-leaved weeds/Cyperaceae) and useful plants: Triticum aestivum (TRZAS), Stellaria media (STEME), Lolium multiflorum (LOLMU), Veronica persica (VERPE), Alopecurus myosuroides (ALOMY), Matricaria inodora (MATIN), Brassica napus (BRSNW), Viola tricolor (VIOTR), Avena fatua (AVEFA), Amaranthus retroflexus (AMARE), Zea mays (ZEAMX), Pharbitis purpurea (PHBPU), Setaria viridis (SETVI), Fallopia (ex Polygonum) convolvulus (POLCO), Echinochloa crusgaffi (ECHCG), Abuthilon theophrasti (ABUTH), Cyperus esculentus (CYPES), Oryza sativa (ORYSA).
(§7) Of particular interest are the results shown in the tables (Tab.) below, where the following key is used: • (1) EPPO code (former Bayer code) for the treated plant (see above) • (2) Time of scoring: DAT (days after treatment) • (3) Component A tested (identifying number) • (4) Component B tested (identifying number) • (5) Dosage component A [g of ai/ha] • (6) Dosage component B [g of ai/ha] • (7) % activity found • (8) E value (calculated according to Colby; see above) • (9) Comments: “SYNERGY” =synergistic interaction (E value<% activity found); “SAFENING”=safener action on useful plant (E value>% activity found)

For assay [1], the system named is Cyperus esculentus (CYPES). The assay is described as follows: Post-emergence action, greenhouse pot test, visual scoring: CYPES. The following applies: 21 DAT. Here is the method:
as §1, §2, §3, §4, §5

For the next assay, the system named is Stellaria media (STEME). Kind of assay: Post-emergence action, greenhouse pot test, visual scoring: STEME. The following applies: 10 DAT. On the procedure:
as §1, §2, §3, §4, §5, §6, §7

In another assay the test system is Viola tricolor (VIOTR). The assay is described as follows: Post-emergence action, greenhouse pot test, visual scoring: VIOTR. On the procedure:
as §1, §2, §3, §4, §5, §6, §7

Assay [2] deals with Matricaria inodora (MATIN). Kind of assay: Post-emergence action, greenhouse pot test, visual scoring: MATIN. On the procedure: as §1, §2, §3, §4, §5
In assay [3] the test system is Fallopia (ex Polygonum) convolvulus (POLCO). Kind of assay: Post-emergence action, greenhouse pot test, visual scoring: POLCO. Conditions: 21 DAT. Here is the method:
as §1, §2, §3, §4, §5, §6, §7

For another assay, the system named is Avena fatua (AVEFA). Kind of assay: Post-emergence action, greenhouse pot test, visual scoring: AVEFA. On the procedure:
as §1, §2, §3, §4, §5, §6, §7

In assay [4] the test system is Abuthilon theophrasti (ABUTH). Kind of assay: Post-emergence action, greenhouse pot test, visual scoring: ABUTH. Conditions: 21 DAT. On the procedure:
as §1, §2, §3, §4, §5, §6, §7

Assay [5] relates to Alopecurus myosuroides (ALOMY). The assay is described as follows: Post-emergence action, greenhouse pot test, visual scoring: ALOMY. The following applies: Alopecurus myosuroides, post-emergence, read-out: % activity found. On the procedure:
as §1, §2, §3, §4, §5

The subject of assay [6] is Amaranthus retroflexus (AMARE). The assay is described as follows: Post-emergence action, greenhouse pot test, visual scoring: AMARE. The following applies: 21 DAT; dose (6) 300. On the procedure: as §1, §2, §3, §4, §5
Assay [7] concerns Triticum aestivum (TRZAS). The assay is described as follows: Post-emergence action, greenhouse pot test, visual scoring: TRZAS. The following applies: Triticum aestivum, post-emergence, read-out: % activity found; for plant injury at 200 g/ha: B 200 g of ai/ha. Here is the method:
as §1, §2, §3, §4, §5, §6, §7

Assay [8] concerns Pharbitis purpurea (PHBPU). Kind of assay: Post-emergence action, greenhouse pot test, visual scoring: PHBPU. Conditions: 21 DAT. On the procedure:
as §1, §2, §3, §4, §5, §6, §7

The subject of the next assay is Zea mays (ZEAMX). Kind of assay: Post-emergence action, greenhouse pot test, visual scoring: ZEAMX. The following applies: Zea mays, post-emergence, read-out: % activity found; for plant injury at 200 g/ha: B 200 g of ai/ha; for plant injury at 700 g/ha: B 700 g of ai/ha; for plant injury at 2100 g/ha: B 2100 g of ai/ha. On the procedure: as §1, §2, §3, §4, §5, §6, §7

The subject of another assay is Setaria viridis (SETVI). The assay is described as follows: Post-emergence action, greenhouse pot test, visual scoring: SETVI. The following applies: Setaria viridis, post-emergence, 504 h, 21 DAT, read-out: % activity found. Here is the method:
as §1, §2, §3, §4, §5, §6, §7

For the next assay, the system named is Oryza sativa (ORYSA). Kind of assay: Post-emergence action, greenhouse pot test, visual scoring: ORYSA. The following applies: Oryza sativa, post-emergence, 504 h, 21 DAT, read-out: % activity found. On the procedure: as §1, §2, §3, §4, §5, §6, §7
In assay [9] the test system is Lolium multiflorum (LOLMU). Kind of assay: Post-emergence action, greenhouse pot test, visual scoring: LOLMU. The following applies: 10 DAT, B 700 g of ai/ha. On the procedure: as §1, §2, §3, §4, §5, §6, §7
Where [10] appears, read: 504 h, 21 DAT, B 700 g of ai/ha.

Where two headings read alike, the source gives them in different places.

With `CCCOCCN(C(=O)CCl)c1c(CC)cccc1CC` [B4-8, 2-chloro-N-(2,6-diethylphenyl)-N-(2-propoxyethyl)acetamide], the “% activity found” value in the assay with Veronica persica (VERPE) (10 DAT, dose (6) 100) is recorded as 0%; in the assay with Veronica persica (VERPE) (10 DAT, dose (6) 300), 0%; in the assay with Veronica persica (VERPE) (21 DAT, dose (6) 100), 0%; with Veronica persica (VERPE) (21 DAT, dose (6) 300) it was 0%; in [1] (dose (6) 100), 0%; in assay [1] (dose (6) 300), 0%. Besides, the “% activity found” value in the assay on Stellaria media (STEME) (dose (6) 100) turned out to be 10%; in the assay on Stellaria media (STEME) (dose (6) 300) it was 10%; with Viola tricolor (VIOTR) (21 DAT, dose (6) 100) it was 10%; in assay [2] (10 DAT, dose (6) 100) it was 0%; in assay [2] (21 DAT, dose (6) 100), 0%; in assay [3] (dose (6) 100), 0%. Also, the “% activity found” value is listed as 20% in assay [3] (dose (6) 300); 0% in the assay with Avena fatua (AVEFA) (10 DAT, dose (6) 100); 0% with Avena fatua (AVEFA) (21 DAT, dose (6) 100); 30% in the assay on Avena fatua (AVEFA) (21 DAT, dose (6) 300); 0% in assay [4] (dose (6) 100); 0% in assay [4] (dose (6) 300). Moreover, the “% activity found” value stood at 20% in assay [6], 0% in [8] (dose (6) 100) and 0% in assay [8] (dose (6) 300). Further, the pest or weed control at 100 g/ha in assay [5] (240 h, 10 DAT, B 100 g of ai/ha) was found to be 10%. Moreover, the plant injury at 300 g/ha in [7] (240 h, 10 DAT, B 300 g of ai/ha) came out at 10%.

For the compound `CN(C(=O)COc1nc2ccccc2s1)c1ccccc1` [B3-4, 2-(2-benzothiazolyloxy)-N-methyl-N-phenylacetamide], the “% activity found” value in assay [1] (B 200 g of ai/ha) worked out at 0%; in assay [1] (B 600 g of ai/ha) it was 0%; with Stellaria media (STEME) (B 200 g of ai/ha), 10%; in the assay with Viola tricolor (VIOTR) (10 DAT, B 200 g of ai/ha), 0%; in the assay on Viola tricolor (VIOTR) (10 DAT, B 600 g of ai/ha), 0%; in [2] (10 DAT, B 200 g of ai/ha), 0%. The “% activity found” value came out at 0% in assay [2] (10 DAT, B 600 g of ai/ha); 0% in assay [2] (21 DAT, B 200 g of ai/ha); 20% in [2] (21 DAT, B 600 g of ai/ha); 0% in assay [3] (B 200 g of ai/ha); 0% in [3] (B 600 g of ai/ha); 0% in the assay with Avena fatua (AVEFA) (21 DAT, B 200 g of ai/ha). The “% activity found” value in [4] (B 200 g of ai/ha), in [4] (B 600 g of ai/ha) and in assay [8] (B 200 g of ai/ha) was 0% throughout. In addition, the plant injury at 200 g/ha with Zea mays (ZEAMX) (240 h, 10 DAT) was 0%; in the assay on Zea mays (ZEAMX) (504 h, 21 DAT), 0%; in [7] (240 h, 10 DAT) it was 10%; in assay [7] (504 h, 21 DAT) it was 0%. Also, the plant injury at 600 g/ha was determined as 10% with Zea mays (ZEAMX) (504 h, 21 DAT, B 600 g of ai/ha) and 20% with Oryza sativa (ORYSA) (B 600 g of ai/ha). The pest or weed control at 200 g/ha with Setaria viridis (SETVI) (B 200 g of ai/ha) was 30%.

Take `CCC(=O)Nc1ccc(Cl)c(Cl)c1` [B3-8, N-(3,4-dichlorophenyl)propanamide]: the “% activity found” value was found to be 0% in [1] (B 700 g of ai/ha); 0% in assay [1] (B 2100 g of ai/ha); 60% with Viola tricolor (VIOTR) (21 DAT, B 700 g of ai/ha); 70% with Viola tricolor (VIOTR) (21 DAT, B 2100 g of ai/ha); 0% in assay [2] (10 DAT, B 700 g of ai/ha); 0% in [2] (10 DAT, B 2100 g of ai/ha). In addition, the “% activity found” value came out at 0% in assay [2] (21 DAT, B 700 g of ai/ha); 0% in assay [2] (21 DAT, B 2100 g of ai/ha); 50% in assay [3] (B 700 g of ai/ha); 20% with Avena fatua (AVEFA) (10 DAT, B 700 g of ai/ha); 0% in the assay on Avena fatua (AVEFA) (21 DAT, B 700 g of ai/ha); 10% in the assay on Avena fatua (AVEFA) (21 DAT, B 2100 g of ai/ha). The “% activity found” value in assay [8] (B 2100 g of ai/ha) amounted to 40%; in assay [9], 0%. Besides, the plant injury at 700 g/ha was 0% with Zea mays (ZEAMX) (240 h, 10 DAT); 0% in the assay with Zea mays (ZEAMX) (504 h, 21 DAT); 0% in the assay with Oryza sativa (ORYSA) (B 700 g of ai/ha); 10% in assay [7] (setting [10]). The plant injury at 2100 g/ha with Zea mays (ZEAMX) (240 h, 10 DAT) turned out to be 0%; in the assay on Zea mays (ZEAMX) (504 h, 21 DAT), 0%; in the assay with Oryza sativa (ORYSA) (B 2100 g of ai/ha) it was 0%. Also, the pest or weed control at 2100 g/ha was determined as 80% with Setaria viridis (SETVI) (B 2100 g of ai/ha) and 20% in assay [5] (504 h, 21 DAT, B 2100 g of ai/ha). Further, the pest or weed control at 700 g/ha in assay [5] (setting [10]) came out at 0%.

The values above are taken from patent publication US20100099564A1, “HERBICIDE COMBINATION COMPRISING DIMETHOXYTRIAZINYL-SUBSTITUTED DIFLUOROMETHANESULFONYLANILIDES” (BAYER CROPSCIENCE AG, priority 2008, published 2010).
